Columns and labels:
bamyardgrass = assay: Test B flood test barnyardgrass; type: in vivo, Echinochloa crus-galli; settings: for Plant response rating, Barnyardgrass (0 to 10 scale, 0 is no effect, 10 is complete control) / Barnyardgrass plant response rating (0 to 10 scale, 0 is no effect, 10 is complete control): visual evaluation after twelve to sixteen days; for Barnyardgrass plant response rating (0 to 10 scale, 0 is no effect, 10 is complete control): under heading Pre-emergence
Procedure, shortened: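 Read-out is a visual response score from 0 (no effect) to 10 (complete control), assigned by comparison with untreated controls. Treatment was applied at the 2-leaf stage, and plants stayed in the greenhouse for twelve to sixteen days before scoring.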

blackgrass = assay: Test B pre/postemergence blackgrass; type: in vivo, Alopecurus myosuroides
Procedure, shortened: (§1)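 Response is a visual 0-to-10 score relative to untreated plants, where 0 means no effect and 10 means complete control, taken twelve to sixteen days after application. Treatments went onto soil at planting and onto foliage of 1- to 4-leaf plants, using a surfactant-containing non-phytotoxic solvent.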

surinam grass = assay: Test B pre/postemergence surinam grass; type: in vivo, Brachiaria decumbens
Procedure, shortened: as §1

[1] = Postemergence section (flood test species), Rate 500 g/ha, scale of 0 to 10 where 0 is no effect and 10 is complete control
[2] = Rate 62 g/ha, Postemergence (flood test species), scale of 0 to 10 where 0 is no effect and 10 is complete control
[3] = Postemergence, Rate 125 g/ha, scale 0 to 10, 0 is no effect, 10 is complete control
[4] = Postemergence, Rate 250 g/ha, scale 0 to 10, 0 is no effect, 10 is complete control
[5] = Postemergence, Rate 500 g/ha, scale of 0 to 10 where 0 is no effect and 10 is complete control
[6] = Preemergence, Rate 62 g/ha, scale 0 to 10 (0 no effect, 10 complete control)
[7] = Preemergence, Rate 125 g/ha, scale of 0 to 10 where 0 is no effect and 10 is complete control
[8] = Preemergence, Rate 250 g/ha, scale of 0 to 10 where 0 is no effect and 10 is complete control
[9] = Preemergence, Rate 500 g/ha, scale 0 to 10, 0 is no effect, 10 is complete control
[10] = Rate 62 g/ha, Postemergence, scale of 0 to 10 where 0 is no effect and 10 is complete control
[11] = Preemergence, Rate 500 g/ha, scale of 0 to 10 where 0 is no effect and 10 is complete control
[12] = Rate 62 g/ha, flood test species, Pre-emergence
[13] = Rate 125 g/ha, flood test species
[14] = Rate 250 g/ha, Pre-emergence (flood test species), scale 0 to 10, 0 is no effect, 10 is complete control
[15] = Postemergence, Rate 62 g/ha, scale 0 to 10, 0 is no effect, 10 is complete control
[16] = Postemergence, Rate 125 g/ha, scale of 0 to 10 where 0 is no effect and 10 is complete control
[17] = Preemergence, Rate 62 g/ha, scale of 0 to 10 where 0 is no effect and 10 is complete control
[18] = Preemergence, Rate 250 g/ha, scale 0 to 10 (0 no effect, 10 complete control)
[19] = Postemergence block (flood test species), Rate 250 g/ha, scale 0 to 10
[20] = Rate 125 g/ha, Postemergence section (flood test species), scale 0 to 10, 0 is no effect, 10 is complete control
[21] = Postemergence, Rate 250 g/ha, scale 0 to 10
[22] = Preemergence, Rate 250 g/ha, scale 0 to 10, 0 is no effect, 10 is complete control
[23] = Rate 125 g/ha, Postemergence, scale 0 to 10, 0 is no effect, 10 is complete control
[24] = Postemergence, Rate 250 g/ha, scale 0 to 10, 0 no effect, 10 complete control
[25] = Rate 500 g/ha, Pre-emergence, flood test species, scale 0 to 10 (0 no effect, 10 complete control)
[26] = Rate 62 g/ha, Postemergence, scale 0 to 10, 0 no effect, 10 complete control

CC(C)N(C(=O)n1oc(=O)n(CCC(F)(F)F)c1=O)c1ccc(F)cc1 [Compound 397]
Plant response rating, Barnyardgrass (bamyardgrass; Postemergence (flood test), Rate 125 g/ha, scale 0 to 10, 0 is no effect, 10 is complete control): 0
Barnyardgrass plant response rating (bamyardgrass; [1]): 0
Barnyardgrass plant response rating (bamyardgrass; [2]): 0
Plant response rating, Barnyardgrass (bamyardgrass; flood test species, listed under Postemergence, Rate 250 g/ha, scale 0 to 10, 0 is no effect, 10 is complete control): 0
Plant response rating, Blackgrass (blackgrass; [3]): 8
Plant response rating, Blackgrass (blackgrass; [4]): 9
Blackgrass plant response rating (blackgrass; [5]): 9
Plant response rating, Blackgrass (blackgrass; [6]): 7
Plant response rating, Blackgrass (blackgrass; [7]): 9
Blackgrass plant response rating (blackgrass; [8]): 10
Blackgrass plant response rating (blackgrass; [9]): 10
Blackgrass plant response rating (blackgrass; [10]): 6
Plant response rating, B. signalgrass (surinam grass; [3]): 0
Plant response rating, B. signalgrass (surinam grass; [4]): 2
B. signalgrass plant response rating (surinam grass; [5]): 8
Plant response rating, B. signalgrass (surinam grass; [6]): 3
Plant response rating, B. signalgrass (surinam grass; [7]): 6
B. signalgrass plant response rating (surinam grass; [8]): 9
B. signalgrass plant response rating (surinam grass; [11]): 10
B. signalgrass plant response rating (surinam grass; [10]): 0

CC(C)N(C(=O)n1oc(=O)n(CC(=O)C2CCC2)c1=O)c1ccc(F)cc1 [Compound 640]
Plant response rating, Barnyardgrass (0 to 10 scale, 0 is no effect, 10 is complete control) (bamyardgrass; [12]): 0
Barnyardgrass plant response rating (0 to 10 scale, 0 is no effect, 10 is complete control) (bamyardgrass; [13]): 0
Barnyardgrass plant response rating (bamyardgrass; [14]): 0
Barnyardgrass plant response rating (bamyardgrass; Rate 500 g/ha, Pre-emergence section of Table B, 0 to 10 scale (0 no effect, 10 complete control)): 0
Plant response rating, Blackgrass (blackgrass; [15]): 0
Plant response rating, Blackgrass (blackgrass; [16]): 4
Plant response rating, Blackgrass (blackgrass; [5]): 5
Blackgrass plant response rating (blackgrass; [17]): 0
Blackgrass plant response rating (blackgrass; [7]): 0
Plant response rating, Blackgrass (blackgrass; [18]): 0
Plant response rating, Blackgrass (blackgrass; [11]): 8
Plant response rating, B. signalgrass (surinam grass; [15]): 0
Plant response rating, B. signalgrass (surinam grass; [16]): 0
B. signalgrass plant response rating (surinam grass; Postemergence, Rate 250 g/ha, scale of 0 to 10, 0 is no effect, 10 is complete control): 0
Plant response rating, B. signalgrass (surinam grass; [5]): 4
B. signalgrass plant response rating (surinam grass; [17]): 0
B. signalgrass plant response rating (surinam grass; [7]): 2
Plant response rating, B. signalgrass (surinam grass; [18]): 4
Plant response rating, B. signalgrass (surinam grass; [11]): 9

CCN(C(=O)n1oc(=O)n(C2CCCCCC2)c1=O)C1CCCCC1 [Compound 429]
Barnyardgrass plant response rating (bamyardgrass; [19]): 1
Barnyardgrass plant response rating (bamyardgrass; [1]): 7
Barnyardgrass plant response rating (bamyardgrass; [2]): 0
Barnyardgrass plant response rating (bamyardgrass; [20]): 0
Blackgrass plant response rating (blackgrass; [21]): 3
Blackgrass plant response rating (blackgrass; [5]): 3
Plant response rating, Blackgrass (blackgrass; [6]): 0
Plant response rating, Blackgrass (blackgrass; [7]): 0
Blackgrass plant response rating (blackgrass; [22]): 0
Blackgrass plant response rating (blackgrass; [9]): 3
Blackgrass plant response rating (blackgrass; [10]): 0
Blackgrass plant response rating (blackgrass; [23]): 2
B. signalgrass plant response rating (surinam grass; [24]): 0
B. signalgrass plant response rating (surinam grass; [5]): 0
Plant response rating, B. signalgrass (surinam grass; [6]): 0
Plant response rating, B. signalgrass (surinam grass; [7]): 0
B. signalgrass plant response rating (surinam grass; [22]): 0
B. signalgrass plant response rating (surinam grass; [9]): 4
B. signalgrass plant response rating (surinam grass; [10]): 0
B. signalgrass plant response rating (surinam grass; [23]): 0

CCC=CCn1c(=O)on(C(=O)N(c2ccccc2)C(C)C)c1=O [Compound 454]
Plant response rating, Barnyardgrass (0 to 10 scale, 0 is no effect, 10 is complete control) (bamyardgrass; [12]): 0
Barnyardgrass plant response rating (0 to 10 scale, 0 is no effect, 10 is complete control) (bamyardgrass; [13]): 0
Barnyardgrass plant response rating (bamyardgrass; [14]): 0
Barnyardgrass plant response rating (bamyardgrass; [25]): 0
Blackgrass plant response rating (blackgrass; [21]): 2
Blackgrass plant response rating (blackgrass; [5]): 2
Plant response rating, Blackgrass (blackgrass; [17]): 0
Plant response rating, Blackgrass (blackgrass; [7]): 0
Blackgrass plant response rating (blackgrass; [22]): 2
Blackgrass plant response rating (blackgrass; [9]): 6
Blackgrass plant response rating (blackgrass; [26]): 0
Blackgrass plant response rating (blackgrass; [23]): 0
B. signalgrass plant response rating (surinam grass; [24]): 0
B. signalgrass plant response rating (surinam grass; [5]): 2
Plant response rating, B. signalgrass (surinam grass; [17]): 0
Plant response rating, B. signalgrass (surinam grass; [7]): 0
B. signalgrass plant response rating (surinam grass; [22]): 4
B. signalgrass plant response rating (surinam grass; [9]): 4
B. signalgrass plant response rating (surinam grass; [26]): 0
B. signalgrass plant response rating (surinam grass; [23]): 0

C=C[Si](C)(C)Cn1c(=O)on(C(=O)N(c2ccc(Cl)cc2)C(C)C)c1=O [Compound 425]
Barnyardgrass plant response rating (bamyardgrass; [19]): 1
Barnyardgrass plant response rating (bamyardgrass; [1]): 7
Barnyardgrass plant response rating (bamyardgrass; [2]): 0
Barnyardgrass plant response rating (bamyardgrass; [20]): 0
Blackgrass plant response rating (blackgrass; [21]): 8
Blackgrass plant response rating (blackgrass; [5]): 9
Plant response rating, Blackgrass (blackgrass; [6]): 7
Plant response rating, Blackgrass (blackgrass; [7]): 9
Blackgrass plant response rating (blackgrass; [8]): 9
Blackgrass plant response rating (blackgrass; [9]): 10
Blackgrass plant response rating (blackgrass; [10]): 2
Blackgrass plant response rating (blackgrass; [23]): 3
B. signalgrass plant response rating (surinam grass; [24]): 7
B. signalgrass plant response rating (surinam grass; [5]): 8
Plant response rating, B. signalgrass (surinam grass; [6]): 3
Plant response rating, B. signalgrass (surinam grass; [7]): 8
B. signalgrass plant response rating (surinam grass; [8]): 8
B. signalgrass plant response rating (surinam grass; [11]): 9
B. signalgrass plant response rating (surinam grass; [10]): 0
B. signalgrass plant response rating (surinam grass; [23]): 2

C=CC(OC)n1c(=O)on(C(=O)N(c2ccc(F)cc2)C(C)C)c1=O (centres unmarked) [Compound 452]
Plant response rating, Barnyardgrass (0 to 10 scale, 0 is no effect, 10 is complete control) (bamyardgrass; [12]): 0
Barnyardgrass plant response rating (0 to 10 scale, 0 is no effect, 10 is complete control) (bamyardgrass; [13]): 0
Barnyardgrass plant response rating (bamyardgrass; [14]): 0
Barnyardgrass plant response rating (bamyardgrass; [25]): 0
Blackgrass plant response rating (blackgrass; [21]): 3
Blackgrass plant response rating (blackgrass; [5]): 5
Plant response rating, Blackgrass (blackgrass; [17]): 0
Plant response rating, Blackgrass (blackgrass; [7]): 0
Blackgrass plant response rating (blackgrass; [22]): 2
Blackgrass plant response rating (blackgrass; [9]): 2
Blackgrass plant response rating (blackgrass; [26]): 0
Blackgrass plant response rating (blackgrass; [23]): 0
B. signalgrass plant response rating (surinam grass; [24]): 0
B. signalgrass plant response rating (surinam grass; [5]): 0
Plant response rating, B. signalgrass (surinam grass; [17]): 0
Plant response rating, B. signalgrass (surinam grass; [7]): 0
B. signalgrass plant response rating (surinam grass; [22]): 0
B. signalgrass plant response rating (surinam grass; [9]): 0
B. signalgrass plant response rating (surinam grass; [26]): 0
B. signalgrass plant response rating (surinam grass; [23]): 0

Reference: patent publication US6737383B1, “Herbicidal oxadiazolidines” (priority 1999, dated 2004)
